According to patent US9061003B2, “Therapeutic or preventive agent for diabetes” (NITTA GELATIN INC., priority 2011, dated 2015):
Like-named read-outs stand apart in the source and are kept apart here. Square brackets hold non-standard residues; d marks the D form. Peptide text beside a SMILES is read from it. Hyp = O=C(O)[C@@H]1C[C@@H](O)CN1

How the values were obtained:
[1] = tested on: Human-derived intestinal tract L cells (NCI-H716 cell); type: cell-based; details: for GLP-1 secretion accelerating activity (in words): discussion of results; for GLP-1 secretion accelerating percentage: peptides, 5 mM sample, 1 hour, NCI-H716 cells, Blank = 100%, n = 4
Description: Human-derived intestinal tract L cells (NCI-H716 cell: manufactured by ATCC) were inoculated at 5×10^5 cells/mL×200 μL (1×10^5 cells/well) in a RPIM medium containing 10% FBS (manufactured by ATCC) on a Pre-coated poly-L-lysin plate (96 wells plate) and cultured for 2 days. After confirming that the cells were adhered to the plate, the medium was replaced by a test medium (146 mM NaCl, 5 mM KCl, 1.5 mM CaCl2, 1 mM MgSO4, 20 mM HEPES, 5.6 mM glucose, 2 mg/mL BSA) and a sample was added at a final concentration of 5 mM. A culture supernatant after 1 hour was 30-fold diluted with PBS, and tested with GLP-1 ELISA kit (manufactured by Levis) according to the protocol.
Based on GLP-1 secretion in the case not added with the sample (Blank) as 100%, a GLP-1 secretion accelerating percentage in the fraction added with 5 mM sample was calculated.

[2] = molecular target: T1, DPPIV enzyme; human recombinant (Homo sapiens, UniProt P27487); test: DPPIV inhibitory activity (DPPIV Drug Discovery Kit-AK-499, H-Gly-Pro-AMC substrate); type: biochemical; details: for DPPIV inhibitory activity (in words): discussion of results; for IC50 (concentration at which 50% of DPPIV activity was inhibited): peptides, human recombinant DPPIV
T1 construct: purchased BIOMOL E434-9090 (kit AK-499)
T1 sequence (P27487 whole entry): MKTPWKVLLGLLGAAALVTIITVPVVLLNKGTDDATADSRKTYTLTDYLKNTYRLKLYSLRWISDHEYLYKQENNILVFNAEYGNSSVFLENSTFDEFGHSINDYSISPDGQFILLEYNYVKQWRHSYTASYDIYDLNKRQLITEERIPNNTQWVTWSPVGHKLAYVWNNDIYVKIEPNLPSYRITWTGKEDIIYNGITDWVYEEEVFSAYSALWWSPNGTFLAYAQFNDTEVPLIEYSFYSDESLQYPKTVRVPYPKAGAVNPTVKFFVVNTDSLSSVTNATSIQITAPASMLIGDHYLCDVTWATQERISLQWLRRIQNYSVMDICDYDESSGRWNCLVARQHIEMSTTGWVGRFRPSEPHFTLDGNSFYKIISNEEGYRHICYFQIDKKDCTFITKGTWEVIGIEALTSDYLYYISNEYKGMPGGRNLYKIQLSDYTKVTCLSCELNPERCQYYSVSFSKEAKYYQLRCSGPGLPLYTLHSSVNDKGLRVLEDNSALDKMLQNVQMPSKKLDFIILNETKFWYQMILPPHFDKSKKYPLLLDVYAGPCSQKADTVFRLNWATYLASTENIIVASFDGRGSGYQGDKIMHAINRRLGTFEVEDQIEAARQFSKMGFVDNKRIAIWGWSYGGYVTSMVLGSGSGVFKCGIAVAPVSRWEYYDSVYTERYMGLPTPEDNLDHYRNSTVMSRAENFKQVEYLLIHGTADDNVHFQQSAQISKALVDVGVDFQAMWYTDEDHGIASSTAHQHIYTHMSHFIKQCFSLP
Description: DPPIV inhibitory activity was determined by using a DPPIV inhibitory activity measuring kit “DPPIV Drug Discovery Kit-AK-499” (manufactured by BIOMOL). […] Inhibitory activity was evaluated by the concentration at which 50% of DPPIV activity was inhibited.

[3] = Intestinal tract absorptivity (intragastric administration, portal vein perfusate, LC/MS/MS); type: in vivo, Wistar rats; details: rat, po
Description: Male Wistar rats (170 g) were fasted overnight before subjected to the experiment. As a test sample, 215 nmol/10 mL of each of the peptides was used, and intragastrically administered. As a test method, heart and portal vein of each rat were attached with a cannula to make one-directional perfusion. […] To a perfusion sample solution (5.0 mL) collected from the portal vein was added 0.5 mL of 30% sulfosalicylic acid and stirred vigorously, and left overnight in a refrigerator. This sample was centrifuged at 3000 rpm for 10 minutes, to remove protein. For the supernatant of centrifugation, an amount of hydroxyproline in 0.5 mL was colorimetrically quantified, and an amount of free-type Hyp was obtained. […] After concentrating and drying the resultant in an evaporator, and removing the hydrochloric acid, the solid was dissolved in 5 mL of distilled water, and several drops of a saturated lithium hydroxide solution was added thereto to adjust pH at 5 to 7, and the volume was fixed at 10 mL. […] The value obtained by subtracting the amount of free-type Hyp before hydrolysis from the total Hyp amount after hydrolysis is an amount of peptide-form Hyp. From this amount of peptide-form Hyp, a quantitative value of absorption of each peptide into rat portal vein perfusate in the test sample was first determined. The colorimetric quantification of the amount of hydroxyproline was conducted by a […] and Shill method, and was concretely conducted in the following manner. That is, 2 mL of 2-propanol was added to 2 mL of a sample solution and stirred thoroughly. Then, 0.5 mL of a chloramine T liquid being an oxidizing agent was added to the mixture, and left still for accurately 4 minutes, and then cooled on ice. Then, 5 mL of a p-dimethylaminobenzaldehyde solution was added to the mixture and stirred thoroughly, and then heated in a boiling water bath for accurately 2 minutes. Then, the reaction was immediately cooled on ice, and left still for 1 hour, and then colorimetrically quantified at a wavelength of 575 nm. […] Further, the p-dimethylaminobenzaldehyde solution (Erich solution) was prepared by dissolving 20 g of p-dimethylaminobenzaldehyde powder in 22 mL of concentrated hydrochloric acid under heating in boiling water, and immediately cooling the same in ice water, and adding 122 mL of 2-propanol and dissolving it under stirring. Next, peptides collected in the rat portal vein perfusate, namely the aforementioned intestinally absorbed peptides were identified and quantified by the following HPLC analysis and mass spectrometry (LC/MS/MS). Analysis of the peptide in the perfusate was conducted by reverse-phase HPLC analysis. As a HPLC device, an LCSS-905 system manufactured by JASCO Corporation, consisting of a liquid feeding pump, a degasser, an automatic sampler, a column open, a UV spectrophotometer, a printer, and a system controller was used. As a reverse-phase column, Nova Pak C18 (3.9×150 mm) was used. […] As a HPLC device, U980HPLC (manufactured by JASCO Corporation) attached with an ODS(C18) column (Mightysil RP-18, 2×250 mm, manufactured by Kanto Chemical Co., Ltd.) was used. As a mobile phase solvent, a 0.2% formic acid-containing acetonitrile-water system was used, and the concentration of acetonitrile was increased from 0% to 40% over 40 minutes by a linear gradient, and it was washed with 100% acetonitrile for 10 minutes. […] MS analysis was conducted by a MS/MS system using a Quattro LC mass spectrophotometer (Micromass, Manchester, UK) according to a four-channel Multiple Reaction Monitoring method. To be more specific, the elute from HPLC was monitored by m/z being [M+H]^+ and by m/z of its fragment ion species. At this time, [M+H]^+ m/z was monitored using 302.2>189.4 for LOG; 286.1>189.3 for POG; 187.1>70.3 for PA; 261.1>243.4 for EO, 245.1>132.3 for LO; 245.2>132.1 for IO; 318.1>225.4 for EOG; 276.1>189.4 for SOG; 219.1>132.2 for SO; and 260.1>189.4 for AOG.

ob/ob mice = test: Evaluation of sugar tolerance by glucose loading test; type: in vivo; details: 0.85 g/kg orally 30 minutes before oral glucose 2 g/kg
Description: Six-weeks old male ob/ob mice (Japan SLC) were allowed to acclimate by feeding with normal diet (MF, Oriental Yeast) for 7 days, and subjected to the experiment. After fasting the same mice overnight (16 hours), each collagen peptide (0.85 g/kg) or casein (0.85 g/kg, manufactured by DMV, Netherlands) was orally administered, and glucose (2 g/kg) was orally administered after 30 minutes, and the effect on the sugar tolerance was examined by a glucose loading test (2 g/kg). After 0, 15, 30, 60 and 120 minutes, the blood sugar level was measured by using a blood glucose measuring apparatus (Glutest ace R, SANWA KAGAKU KENKYUSHO CO., LTD.), and AUC0-120 min was calculated, and evaluated.

[4] = male, Wistar, in vivo, 215 nmol/10 mL
[5] = male Wistar rats, 215 nmol/10 mL intragastrically, portal vein perfusate, read-out: Amount of peptide identified after absorption

Row | Compound | GLP-1 secretion accelerating activity (in words) [1] | GLP-1 secretion accelerating percentage [1] | DPPIV inhibitory activity (in words) [2] | IC50 (concentration at which 50% of DPPIV activity was inhibited) [2] | level at time molar [3, 4] | level at time molar [3, 5] | AUC0-120 min × 1000 (blood sugar level) (ob/ob mice)
1 | N[C@@H](CO)C(=O)N1C[C@H](O)C[C@H]1C(=O)O [SO, Ser-Hyp] (H-Ser-[Hyp]-OH; N-terminus and C-terminus assumed) | have GLP-1 secretion accelerating activity | 161 ± 37% | high DPPIV inhibitory activity | 3.6 mM | 116.1 ± 0.9 µM | – | –
2 | C[C@H](N)C(=O)N1C[C@H](O)C[C@H]1C(=O)NCC(=O)O [AOG, Ala-Hyp-Gly] (H-Ala-[Hyp]-Gly-OH; N-terminus and C-terminus assumed) | have GLP-1 secretion accelerating activity | 120 ± 5% | high DPPIV inhibitory activity | 6.0 mM | – | 66.7 ± 1.3 µM | –
3 | C[C@H](NC(=O)[C@@H]1CCCN1)C(=O)NCC(=O)O [PAG, reference compound] (H-Pro-Ala-Gly-OH; N-terminus and C-terminus assumed) | – | – | – | >10 mM | 105 ± 1.3 µM | – | –
4 | Hyp-Gly [OG] | have GLP-1 secretion accelerating activity | 152 ± 22% | have DPPIV inhibitory activity | – | – | – | –
5 | N[C@@H](CO)C(=O)N1C[C@H](O)C[C@H]1C(=O)NCC(=O)O [SOG, Ser-Hyp-Gly] (H-Ser-[Hyp]-Gly-OH; N-terminus and C-terminus assumed) | – | – | high DPPIV inhibitory activity | 3.0 mM | 103.2 ± 1 µM | – | –
6 | Casein | – | – | – | – | – | – | 40.0 ± 2.0 min mg/dL
7 | CC(C)C[C@H](N)C(=O)N1C[C@H](O)C[C@H]1C(=O)NCC(=O)O [LOG, Leu-Hyp-Gly] (H-Leu-[Hyp]-Gly-OH; N-terminus and C-terminus assumed) | have GLP-1 secretion accelerating activity | 326 ± 17% | high DPPIV inhibitory activity | 0.28 mM | – | 116.1 ± 1 µM | –
8 | C[C@H](N)C(=O)N1C[C@H](O)C[C@H]1C(=O)O [AO, Ala-Hyp] (H-Ala-[Hyp]-OH; N-terminus and C-terminus assumed) | – | 262 ± 71% | – | >10 mM | 71 ± 0.9 µM | – | –
9 | CC[C@H](C)[C@H](N)C(=O)N1C[C@H](O)C[C@H]1C(=O)O [IO, Ile-Hyp] (H-Ile-[Hyp]-OH; N-terminus and C-terminus assumed) | – | – | high DPPIV inhibitory activity | 2.9 mM | 163 ± 1.9 µM | – | –
10 | NCC(=O)N1CCC[C@H]1C(=O)N1C[C@H](O)C[C@H]1C(=O)O [GPO, Gly-Pro-Hyp] (H-Gly-Pro-[Hyp]-OH) | – | 278 ± 60% | – | >10 mM | – | 2.2 µM | –
11 | Pro-Hyp [PO] | have GLP-1 secretion accelerating activity | 154 ± 44% | have DPPIV inhibitory activity | – | – | – | –
12 | N[C@@H](CCC(=O)O)C(=O)N1C[C@H](O)C[C@H]1C(=O)O [EO, Glu-Hyp] (H-Glu-[Hyp]-OH; N-terminus and C-terminus assumed) | have GLP-1 secretion accelerating activity | 148 ± 66% | high DPPIV inhibitory activity | 1.5 mM | 156 ± 1.3 µM | – | –
13 | C[C@H](NC(=O)[C@@H]1CCCN1)C(=O)O [PA, Pro-Ala] (H-Pro-Ala-OH; N-terminus and C-terminus assumed) | have GLP-1 secretion accelerating activity | 133 ± 85% | high DPPIV inhibitory activity | 1.0 mM | 152.6 ± 1.1 µM | – | –
14 | Pro-Gly [PG] | have GLP-1 secretion accelerating activity | 168 ± 15% | have DPPIV inhibitory activity | – | – | – | –
15 | N[C@@H](CCC(=O)O)C(=O)N1C[C@H](O)C[C@H]1C(=O)NCC(=O)O [EOG, Glu-Hyp-Gly] (H-Glu-[Hyp]-Gly-OH; N-terminus and C-terminus assumed) | have GLP-1 secretion accelerating activity | 307 ± 84% | high DPPIV inhibitory activity | 2.9 mM | 110 ± 0.9 µM | – | –
16 | CC(C)C[C@H](N)C(=O)N1C[C@H](O)C[C@H]1C(=O)O [LO, Leu-Hyp] (H-Leu-[Hyp]-OH; N-terminus and C-terminus assumed) | – | – | high DPPIV inhibitory activity | 1.7 mM | 167.7 ± 0.9 µM | – | –
17 | Pro-Pro [PP] | have GLP-1 secretion accelerating activity | 167 ± 53% | have DPPIV inhibitory activity | – | – | – | –
18 | O=C(O)CNC(=O)[C@@H]1C[C@@H](O)CN1C(=O)[C@@H]1CCCN1 [POG, Pro-Hyp-Gly] (H-Pro-[Hyp]-Gly-OH; N-terminus and C-terminus assumed) | – | – | high DPPIV inhibitory activity | 0.6 mM | – | 129 ± 1 µM | –
